Key:
Format in all cases: functional, cell-based
HL-60 = test: Cytotoxicity against human HL60 cells after 48 hrs by MTT assay; conditions: HL-60, 48 h
SMMC-7721 = test: Cytotoxicity against human SMMC7721 cells after 48 hrs by MTT assay; conditions: SMMC-7721, 48 h
MCF7 = test: Cytotoxicity against human MCF7 cells after 48 hrs by MTT assay; conditions: MCF7, 48 h
A549 = test: Cytotoxicity against human A549 cells after 48 hrs by MTT assay; conditions: A549, 48 h
SW480 = test: Cytotoxicity against human SW480 cells after 48 hrs by MTT assay; conditions: SW480, 48 h

SMILES	IC50 (HL-60; read-out: IC50)	IC50 (HL-60; read-out: pIC50 (converted))	IC50 (SMMC-7721; read-out: IC50)	IC50 (SMMC-7721; read-out: pIC50 (converted))	IC50 (MCF7; read-out: IC50)	IC50 (MCF7; read-out: pIC50 (converted))	IC50 (A549; read-out: IC50)	IC50 (A549; read-out: pIC50 (converted))	IC50 (SW480; read-out: IC50)	IC50 (SW480; read-out: pIC50 (converted))
C=C1C(=O)[C@]23C[C@H]1CC[C@H]2[C@]12CO[C@H](CC1=O)C(C)(C)C2=C(O)C3=O [MAOECRYSTAL P]	1 µM	1 µM	2.8 µM	2.51 µM	1.8 µM	2 µM	6.3 µM	6.31 µM	2.1 µM	2 µM
C=C(C=O)[C@@H]1CC[C@@H]2[C@@H](C1)C(=O)[C@@H](O)[C@@H]1C(C)(C)[C@H]3CC(=O)[C@@]21CO3 [LAXIFLORIN P]	3.8 µM	3.98 µM	5.6 µM	5.01 µM	3.2 µM	3.16 µM	11.7 µM	12.6 µM	3.1 µM	3.16 µM
C[C@@H]1C[C@](O)([C@@H]2CC[C@@H]3[C@@H](C2)C(=O)[C@@H](O)[C@@H]2C(C)(C)[C@H]4CC(=O)[C@@]32CO4)C(=O)O1 [LAXIFLOROLIDE B]	> 40 µM	> 39.8 µM	> 40 µM	> 39.8 µM	> 40 µM	> 39.8 µM	> 40 µM	> 39.8 µM	> 40 µM	> 39.8 µM
C=C1[C@@H]2CC[C@H]3[C@@]45CO[C@](O)([C@@H](O)[C@@H]4C(C)(C)C=CC5=O)[C@]3(C2)[C@@H]1O [MAOECRYSTAL C]	18.9 µM	20 µM	> 40 µM	> 39.8 µM	14.4 µM	15.8 µM	> 40 µM	> 39.8 µM	14.5 µM	15.8 µM
C[C@H]1C[C@](O)([C@@H]2CC[C@@H]3[C@@H](C2)C(=O)[C@@H](O)[C@@H]2C(C)(C)[C@H]4CC(=O)[C@@]32CO4)C(=O)O1 [LAXIFLOROLIDE A]	> 40 µM	> 39.8 µM	> 40 µM	> 39.8 µM	> 40 µM	> 39.8 µM	> 40 µM	> 39.8 µM	> 40 µM	> 39.8 µM
C=C1[C@@H]2CC[C@H]3[C@]45CO[C@H](CC4=O)C(C)(C)C5=C(O)C(=O)[C@]3(C2)[C@@H]1O (relative stereo)	9.9 µM	9.9 µM	21.5 µM	20 µM	12.9 µM	12.6 µM	24.9 µM	25.1 µM	15.4 µM	15.8 µM
C=C1C(=O)[C@]23C[C@H]1CC[C@H]2[C@@]12CO[C@]3(O)[C@@H](O)[C@@H]1C(C)(C)C=CC2=O [ERIOCALYXIN B]	0.3 µM	0.316 µM	0.8 µM	0.794 µM	0.6 µM	0.631 µM	3.1 µM	3.16 µM	0.5 µM	0.501 µM
CC1(C)[C@H]2[C@H](O)C(=O)[C@@H]3C[C@H](C(=O)O)CC[C@H]3[C@@]23CO[C@@H]1CC3=O [LAXIFLORIN Q]	> 40 µM	> 39.8 µM	> 40 µM	> 39.8 µM	> 40 µM	> 39.8 µM	> 40 µM	> 39.8 µM	> 40 µM	> 39.8 µM

— ChEMBL document CHEMBL2086258, “Laxiflorolides A and B, epimeric bishomoditerpene lactones from Isodon eriocalyx” (J Nat Prod, 2012)
